Several values for one entry are separate records, joined by “and”; a condition that tells them apart may be missing. Equal entries are not always repeated. Entries after “also recorded” stand apart in the source; their conditions may differ. Marks after values point to notes of the source that are not given here.
Experiments:
HEK293 cells [1] = test: Nuclear staining with cytoplasmic marker α-tubulin; format: cell-based; conditions: TC 5 μM
(AT)20 [2] = test: Thermal denaturation (UV-melting) of dsDNA with probe TC; format: binding
(GC)10 [3] = test: Agarose gel electrophoresis staining of dsDNA band; format: binding; conditions: 3% agarose gel, about 0.6 μg dsDNA, UV-illumination
d(AATT)5 = test: Absorption / fluorescence response with self-complementary d(AATT)5 duplex; format: binding
(D1)mix [4] = test: Agarose gel electrophoresis staining of dsDNA band; format: binding; conditions: 3% agarose gel, about 0.6 μg dsDNA, UV-illumination
[5] = target: T1, islet amyloid polypeptide (IAPP) aggregates (Homo sapiens, UniProt P10997); test: Selectivity: fluorescence with IAPP aggregates; format: binding; conditions: IAPP aggregates 20 μM
T1 construct: A 0.1 mg (Merck, calbiochem) sample of amylin is dissolved in 100 μL of acetonitrile; purchased Merck, calbiochem

Aβ42 aggregates = Aβ42 aggregates (Homo sapiens, UniProt P05067); test: Absorption / fluorescence response with Aβ42 fibrillar aggregates; format: binding
(D1)mix [6] = test: Thermal denaturation (UV-melting) of dsDNA with probe TC; format: binding
(GC)10 [7] = test: Fluorescence response / quantum yield of probes with dsDNA (GC)10; format: binding
[8] = Absorption, emission and quantum yield of probes without Aβ42 aggregates; format: physicochemical
(D1)mix [9] = test: Fluorescence response / quantum yield of probes with dsDNA (D1)mix; format: binding
cells [10] = test: Comparison of DNA dyes: toxicity; format: cell-based; conditions: Table 3, probe of the disclosure
Excerpt: The major advantages of probe TC are: longer excitation/emission wavelengths (which avoids the cell damage due to the UV-light absorption commonly observed with probes like DAPI and Hoechst dyes, and auto-fluorescence from the cellular organelles and biomolecules), larger stoke shift (this provides additional advantage that avoids the self-absorption of higher energy part of their emission, useful in FRET and BRET based assays), good cell permeability (this is the major limitation of existing probes like propidium iodide, TO-PRO-dyes), non-toxicity (toxicity is the major limitation of NIR-fluorescence probes like DRAQ5 probe) and specific staining (commonly observed with SYTO and other dyes are non-specific in nature). Many commercial/reported dyes in literature are known to bind single stranded DNA, RNA etc. The probe TC is highly specific to double stranded DNA. […] In presence of AT-rich DNA, TC is a better probe than EtBr and PI which are highly toxic to cells.

calf-thymus DNA (ct-DNA) = test: Fluorescence response in presence of calf-thymus DNA; format: binding; conditions: TC 10 μM, ct-DNA 200 μg/mL
Excerpt: Furthermore, the fluorescence response of TC in presence of calf-thymus DNA (ct-DNA) is also studied.

[11] = target: Aβ42 fibrillar aggregates (Homo sapiens, UniProt P05067); test: pH-dependent colorimetric and fluorometric response; format: binding; conditions: TC 10 μM, PBS buffer
(AT)10 = test: Absorption / fluorescence response of probes with dsDNA (AT)10; format: binding; conditions: probe 10 μM
[12] = tested on: (AT)20-Hoechst 33258 complex; test: Competitive binding / FRET / CD study with preformed Hoechst complex; conditions: Hoechst 4 μM + (AT)20, TC 0 to 40 μM, CD signal
(AT)20 [13] = test: Agarose gel electrophoresis staining of dsDNA band; format: binding; conditions: 3% agarose gel, about 0.6 μg dsDNA, UV-illumination
HeLa S3 cells = test: Confocal fluorescence nuclear staining, co-staining with Hoechst 33258; format: cell-based; conditions: TC 5 μM
[14] = Absorption, emission and quantum yield of probes in Tris-HCl buffer without DNA; format: physicochemical
cells [15] = test: Comparison of DNA dyes: cell permeability; format: cell-based; conditions: Table 3, probe of the disclosure
HEK293 cells [16] = test: MTT cytotoxicity assay; format: cell-based
Procedure: 10,000 HEK293 cells are seeded in 96-well plate and cultured for about 12 hours. […] Water is used as a control. About 20 μL of MTT (about 5 mg/mL) is added in each well, incubated for about 3 hours at about 37° C. and about 100 μL of DMSO is added. Readings are taken at about 570 nm in ELISA reader (VERSA Max microplate reader, Molecular Devices). The data is normalized with control and plotted with mean and standard error.

(D2)mix = test: Fluorescence response of probes with dsDNA (D2)mix; format: binding
(AT)20 [17] = test: Fluorescence response / quantum yield of probes with dsDNA (AT)20; format: binding
HepG2 cells = test: Confocal fluorescence staining of mammalian cells at low probe concentration; format: cell-based, human; conditions: (FIG. 44 legend 2 μM)
DNA = test: Comparison of DNA dyes: sequence selectivity and fluorescence of free/DNA bound dye; format: binding
[18] = target: ThT/Aβ42 aggregate complex (Homo sapiens, UniProt P05067); test: ThT displacement / FRET assay; format: binding; conditions: decay at 483 nm, enhancement at 654 nm
[19] = Tris-HCl buffer (100 mM, pH 7.4)
[20] = increasing concentrations of TC (1 μM to 20 μM), FIG. 10
[21] = Table 3, probe of the disclosure

Sequence of Aβ42 aggregates (P05067 672-713 limits assumed): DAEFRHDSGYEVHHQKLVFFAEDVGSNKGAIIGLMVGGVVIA
Sequence of Aβ42 fibrillar aggregates (P05067 672-713 limits assumed): as above
T1 sequence (P10997 34-70 limits assumed): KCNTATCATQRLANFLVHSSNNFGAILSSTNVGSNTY
Sequence of ThT/Aβ42 aggregate complex (P05067 672-713 limits assumed, one chain of several): as the sequence (P05067 672-713 limits assumed) above

In the case of `CCN(CC)c1ccc2cc(/C=C/c3sc4ccccc4[n+]3C)c(=O)oc2c1` [TC, (E)-3-(2-(N-methyl-benzo[d]thiazol-2-yl)vinyl)-7-(diethylamino)-2H-chromen-2-one], the “co-localization with cytoplasmic marker α-tubulin” value (HEK293 cells [1]) is reported as “does not co-localize with cytoplasmic marker α-tubulin”, the “Tm(DNA + TC)” value ((AT)20 [2]) is reported as 49.7 °C and the “gel staining of (GC)10 band” value ((GC)10 [3]) is reported as “not stained”. The “fluorescence enhancement in presence of d(AATT)5” value (d(AATT)5) was roughly 16 folds, the “gel staining of (D1)mix band” value ((D1)mix [4]) was “strong fluorescence intensity” and the “fluorescence enhancement with IAPP aggregates” value [5] was “does not lead to significant fluorescence enhancements”. For the same compound, the “absorption maximum TC/fibril” value (Aβ42 aggregates; Experiment) was 595 nm, the “quantum yield upon binding with Aβ42 aggregates” value (Aβ42 aggregates; TC 2 μM) was 40% and the “persistence of fluorescence of stained Aβ42 aggregates” value (Aβ42 aggregates; aging) was “retain red fluorescence even after 50 days of aging”. For the same compound, the “emission maximum in presence of Aβ42 aggregates” value (Aβ42 aggregates; probe 2 μM) was 654 nm, the “fluorescence enhancement in presence of Aβ42 aggregates” value (Aβ42 aggregates; probe 2 μM, PBS buffer) was roughly 30 fold and the “Tm(DNA + TC)” value ((D1)mix [6]) was 61.6 °C. For the same compound, the “ΦF with (GC)10” value ((GC)10 [7]; [19]) was 0.04, the “fluorescence change in presence of (GC)10” value ((GC)10 [7]; probe 10 μM) was “does not show such fluorescence enhancement” and the “absorption maximum TC/chloroform” value ([8]; Experiment) was 561 nm. For the same compound, the “absorption maximum TC/water” value ([8]; Experiment) was 537 nm, the “absorption maximum in absence of Aβ42 aggregates” value ([8]; PBS buffer (10 mM, pH 7.4)) was 537 nm and the “emission maximum in absence of Aβ42 aggregates” value ([8]; PBS buffer, very weak fluorescence) was 638 nm. For the same compound, the “fluorescence enhancement in presence of (D1)mix” value ((D1)mix [9]; TC 10 μM, DNA 0 to 12 μM) was roughly 6 fold, the “ΦF with (D1)mix” value ((D1)mix [9]; [19]) was 0.11 and the “fluorescence enhancement in presence of (D1)mix” value ((D1)mix [9]; [20]) was roughly 6 fold. For the same compound, the Toxicity (cells [10]) was “Non-Toxic”, the “fluorescence response in presence of ct-DNA” value (calf-thymus DNA (ct-DNA)) was “strong fluorescence enhancement” and the “pH range in which colorimetric and emission properties with Aβ42 aggregates are unaffected / usable” value [11] was 3 to 8 and 2-8. For the same compound, the “emission maxima in presence of (AT)10” value ((AT)10) was 616 nm, the “fluorescence enhancement in presence of (AT)10” value ((AT)10; DNA 0 to 12 μM) was roughly 8 fold and the “competition with Hoechst for minor groove binding site” value [12] was “not competing with Hoechst for binding site in the minor groove of dsDNA”. For the same compound, the “gel staining of (AT)20 band” value ((AT)20 [13]) was “strong fluorescence intensity”, the “nuclear staining of HeLa S3 cells” value (HeLa S3 cells) was “selective targeting to the cell nucleus” and the “ΦF in Buffer” value ([14]; Tris-HCl buffer (100 mM, pH 7.4), absence of DNA) was 0.03. For the same compound, the “emission (fluorescence) maxima” value ([14]; Tris-HCl buffer, no DNA, very weak fluorescence) was 641 nm, the absorption maxima ([14]; probe 10 μM, Tris-HCl buffer, no DNA) was 528 nm and the Cell permeability (cells [15]) was “Permeable”. For the same compound, the “cytotoxicity, dose dependent MTT” value (HEK293 cells [16]; HEK293 cells, 2.5, 5 and 7.5 μM, about 30 minutes) was “non-toxic”, the viable cells (HEK293 cells [16]; HEK293 cells, about 5 μM TC, about 24 hours) was “about 64%” and the “fluorescence enhancement in presence of (D2)mix” value ((D2)mix; TC 10 μM, DNA 0 to 12 μM) was roughly 1.5 fold. The “fluorescence enhancement in presence of (D2)mix” value ((D2)mix; [20]) was roughly 1.5 fold, the “fluorescence enhancement in presence of (AT)20” value ((AT)20 [17]; TC 10 μM, DNA 0 to 12 μM) was roughly 16 fold and the “ΦF with (AT)20” value ((AT)20 [17]; [19]) was 0.36. For the same compound, the “comparative fluorescence response in presence of (AT)20” value ((AT)20 [17]; dye 10 μM, Tris-HCl buffer) was “excellent fluorescence marker”, the “probe concentration at which fluorescence reaches saturation” value ((AT)20 [17]; fixed dsDNA 12 μM) was 18 to 22 µM and the “fluorescence enhancement in presence of (AT)20” value ((AT)20 [17]; [20]) was roughly 16 fold. The “fluorescence / uptake in HepG2 cells” value (HepG2 cells) was “does not show any detectable fluorescence; also recorded: No detectable uptake”, the “Fluorescence maxima DNA bound dye” value (DNA; [21]) was 610 nm and the “Fluorescence maxima free dye” value (DNA; [21]) was 641 nm. The “Fluorescence qauntum yield (ΦF) DNA bound dye” value (DNA; Table 3, superscript b) was 0.36^b, the “preferential binding affinity, AT-sites versus GC-sites” value (DNA; fluorescence studies with dsDNAs) was “towards AT-sites than GC-sites” and the “displacement of ThT from ThT/Aβ42 aggregate complex” value [18] was “effective displacement of ThT by TC”.

Reference: patent US10745393B2, “Small molecular probes, processes and use thereof” (JAWAHARLAL NEHRU CENTRE FOR ADVANCED SCIENTIFIC RESEARCH, priority 2014, dated 2020)
